From ChEMBL document CHEMBL1201862, “PubChem BioAssay data set” (2004)
Activity calls are given as the source filed them.

Experiments:
Nonstructural protein 1 = Nonstructural protein 1 (Influenza A virus, UniProt Q194T2); type: functional, Influenza A virus (A/California/07/2009(H1N1))
MDCK [1] = assay: antiviral activity against H1N1 influenza, dose response, cell-based, strain KY180 (AID 540254); type: functional; conditions: Canis lupus familiaris
MDCK [2] = assay: antiviral activity against H1N1 influenza, dose response, cell-based, strain KY136 (AID 540257); type: functional; conditions: Canis lupus familiaris
[3] = molecular target: Glycogen synthase kinase-3 alpha (Homo sapiens, UniProt P49840); assay: Inhibition of Human GSK-3 alpha Activity Measured in Biochemical System Using Microfluidics - 2063-06_Inhibitor_Dose_DryPowder_Activity. [Related pubchem assays (depositor defined):AID2709]
[4] = molecular target: Glycogen synthase kinase-3 beta (Homo sapiens, UniProt P49841); assay: Inhibition of Human GSK-3 beta Activity Measured in Biochemical System Using Microfluidics - 2063-05_Inhibitor_Dose_DryPowder_Activity. [Related pubchem assays (depositor defined):AID2709]
Candida albicans [5] = assay: growth inhibition of resistant C. albicans, dose response, CaCi-8 strain, fluconazole, dry powder, set 4 (AID 488950); type: functional, organism-based
Candida albicans [6] = assay: C. albicans growth inhibition with fluconazole, dose response, antifungal resistance reversal project, CaCi-2 strain, Alamar Blue, dry powder, set 2 (AID 488930); type: functional, organism-based
Candida albicans [7] = assay: fluconazole resistance reversal in C. albicans, dose response, CaCi-2 strain, Alamar Blue, dry powder, set 4 (AID 488943); type: functional, organism-based
Candida albicans [8] = assay: growth inhibition of azole-resistant C. albicans, dose response, CaCi-8 strain, Alamar Blue, dry powder, set 2 (AID 488909); type: functional, organism-based
[9] = Luminescence Cell-Based Dose Response HTS to Identify Inhibitors of 5'UTR Stem-Loop Driven Prion Protein mRNA Translation in H4 Neuroglioblastoma Cells. [Related pubchem assays: 1827 (Project Summary), 1813 (Primary HTS)]; type: functional
Beta-galactosidase = Beta-galactosidase (Escherichia coli, UniProt Q8VNN2); assay: PubChem AID 485352; type: functional
[10] = inhibitors of SNCA 5'UTR-driven reporter translation, confirmation, H4 neuroglioma cells, luminescence (AID 1988); type: functional, cell-based
[11] = molecular target: Luciferin 4-monooxygenase (Photinus pyralis, UniProt P08659); assay: firefly luciferase enzyme inhibitors, dose response, biochemical, luminescence (AID 1891)
[12] = Luminescence Cell-Based Dose Confirmation HTS to Identify Inhibitors of Platelet Dense Granule Release. [Related pubchem assays: 1663 (Primary HTS), 1678 (Summary of Project)]; type: functional
[13] = molecular target: T1, Type-1 angiotensin II receptor (Homo sapiens, UniProt P30556); assay: AT1 receptor antagonists, dose response, selectivity assay for APJ receptor antagonist project, cell-based, uHTS hits (AID 463214); type: functional;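 note: antagonist potency against angiotensin II stimulated AT1 response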
T1 sequence (P30556 whole entry): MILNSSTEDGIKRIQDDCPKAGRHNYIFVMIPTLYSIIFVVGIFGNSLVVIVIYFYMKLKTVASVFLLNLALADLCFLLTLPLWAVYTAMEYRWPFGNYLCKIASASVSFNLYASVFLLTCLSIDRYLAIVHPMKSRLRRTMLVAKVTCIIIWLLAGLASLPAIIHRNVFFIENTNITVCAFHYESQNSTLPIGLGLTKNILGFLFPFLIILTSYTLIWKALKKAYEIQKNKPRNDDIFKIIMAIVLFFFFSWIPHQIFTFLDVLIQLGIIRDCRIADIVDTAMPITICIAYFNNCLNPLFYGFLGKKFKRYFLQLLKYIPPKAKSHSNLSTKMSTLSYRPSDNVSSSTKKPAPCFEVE

[14] = molecular target: T2, Microphthalmia-associated transcription factor (Homo sapiens, UniProt O75030); assay: TRPM1 promoter luciferase signal decrease, dose response, MITF inhibitor project, cell-based, SK-MEL-5, cherry-picked, set 3 (AID 493073); type: functional
T2 sequence (O75030 whole entry): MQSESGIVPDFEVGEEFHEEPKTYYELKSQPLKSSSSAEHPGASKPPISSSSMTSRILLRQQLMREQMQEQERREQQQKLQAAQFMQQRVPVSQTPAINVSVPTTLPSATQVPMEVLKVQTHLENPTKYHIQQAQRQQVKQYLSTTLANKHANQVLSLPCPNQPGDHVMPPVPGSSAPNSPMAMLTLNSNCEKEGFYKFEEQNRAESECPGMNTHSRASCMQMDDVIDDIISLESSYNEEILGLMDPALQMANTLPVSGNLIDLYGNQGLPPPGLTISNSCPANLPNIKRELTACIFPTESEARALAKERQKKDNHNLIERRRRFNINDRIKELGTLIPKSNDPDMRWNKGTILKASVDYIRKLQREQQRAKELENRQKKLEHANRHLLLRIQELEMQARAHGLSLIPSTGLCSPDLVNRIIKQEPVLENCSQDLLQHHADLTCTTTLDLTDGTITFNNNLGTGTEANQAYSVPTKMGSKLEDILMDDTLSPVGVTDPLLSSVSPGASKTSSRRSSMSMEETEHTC

A-375 = assay: A375 melanoma cell viability reduction, dose response, counter-screen for MITF modulator project, cherry-pick samples, set 2 (AID 540335); type: functional, cell-based; conditions: Homo sapiens
[15] = A549 cell cytotoxicity, dose response, cytotoxicity control, plate reader, cherry-pick, antagonist series (AID 743412); type: functional, cell-based
[16] = HepG2 cell cytotoxicity, dose response, cytotoxicity control, plate reader, cherry-pick, antagonist series (AID 743416); type: functional, cell-based
[17] = LGR2 antagonists, dose response, cell-based, HEK293, CRE-luciferase reporter, cherry pick, set 2 (AID 743343); type: functional;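 note: transfected cells were stimulated with diluted bursicon conditioned medium after compound addition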
[18] = MC4R antagonists, dose response, counter-screen for LGR2 antagonist project, cell-based, plate reader, cherry pick (AID 743444); type: functional;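 note: transfected HEK 293 cells stimulated with alpha-MSH peptide; potency of inhibitors of the alpha-MSH evoked signal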
[19] = HEK293 cell cytotoxicity, dose response, cytotoxicity control, plate reader, cherry-picked samples (AID 743446); type: functional, cell-based
HEK293 [20] = assay: NOD1 signaling inhibitors, primary screen, cell-based, luminescence, uHTS (AID 1578); type: functional; conditions: Homo sapiens
HEK293 [21] = assay: cells; type: functional, cell-based; conditions: Homo sapiens
HEK293 [22] = assay: cells; type: functional, cell-based; conditions: Homo sapiens; remark: listed apart in the source
[23] = molecular target: Nucleotide-binding oligomerization domain-containing protein 2 (Homo sapiens, UniProt Q9HC29); assay: NOD2 signaling inhibitors, cell-based, luminescence, uHTS, HEK293 (AID 1566); type: functional
HEK293 [24] = assay: NOD2 signaling inhibitors in MDP-stimulated cells, cell-based, uHTS, luminescence (AID 2001); type: functional; conditions: Homo sapiens
HEK293 [25] = assay: cells; type: functional, cell-based; conditions: Homo sapiens; remark: listed apart in the source
Jurkat [26] = assay: antigen receptor-induced NF-kB inhibitors, dose response, Jurkat, luciferase reporter, luminescence, B- and T-cell (AID 489004); type: functional, cell-based; conditions: Homo sapiens;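 note: NF-kB luciferase reporter Jurkat cells stimulated with PMA plus ionomycin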
[27] = cytotoxicity in HEK-293T NF-kB-Luc cells, dose response, cytotoxicity control for B/T-cell NF-kB inhibitor project, cell-based, uHTS hits (AID 489019); type: functional;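 note: IC50 reflects cytotoxicity as loss of cell viability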
INS1 = assay: beta cell apoptosis inhibitors, cytokine rescue, dose response, luminescence, retest (AID 449756); type: functional, cell-based; conditions: Rattus norvegicus;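 note: cell death triggered by IL-1 beta plus TNF-alpha plus IFN-gamma mixture; protective hits raise ATP signal compared with cytokine alone wells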
[28] = molecular target: T3, COUP transcription factor 2 (Homo sapiens, UniProt P24468); assay: Luminescence-based cell-based high throughput dose response assay to identify inhibitors of COUP-TFII (NR2F2).; type: functional;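 note: HEK293 cells transiently cotransfected with COUP-TFII expression vector and reporter; luciferase reporter luminescence driven by COUP-TFII from the pX2-168 reporter plasmid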
T3 sequence (P24468 whole entry): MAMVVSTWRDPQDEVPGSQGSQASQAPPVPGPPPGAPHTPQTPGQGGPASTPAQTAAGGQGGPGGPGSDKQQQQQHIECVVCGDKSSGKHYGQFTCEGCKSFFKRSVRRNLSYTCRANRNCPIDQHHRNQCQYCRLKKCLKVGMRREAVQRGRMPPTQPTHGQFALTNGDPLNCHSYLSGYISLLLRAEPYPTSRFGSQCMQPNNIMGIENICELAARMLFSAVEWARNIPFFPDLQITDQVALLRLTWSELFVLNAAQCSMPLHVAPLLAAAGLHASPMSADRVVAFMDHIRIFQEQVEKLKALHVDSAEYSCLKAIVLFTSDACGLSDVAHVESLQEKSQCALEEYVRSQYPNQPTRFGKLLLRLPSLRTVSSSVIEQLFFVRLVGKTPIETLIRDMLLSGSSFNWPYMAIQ

HEK293 [29] = assay: cytotoxicity in HEK293T NF-kB-Luc cells, SAR follow-up, cytotoxicity control for NF-kB activator project, cell-based, resazurin fluorescence (AID 493251); type: functional; conditions: Homo sapiens
Jurkat [30] = assay: SAR Analysis of small molecule inhibitors of T-cell specific antigen receptor-induced NF-kB activation in a Jurkat cell line using a luminescence assay - Set 2. [Related pubchem assays (depositor defined):AID435003, AID435012, AID465]; type: functional, cell-based; conditions: Homo sapiens
HEK293 [31] = assay: SAR Analysis of small molecule inhibitors of T-cell specific antigen receptor-induced NF-kB activation in a HEK-293T cell line using a luminescence assay - Set 2. [Related pubchem assays (depositor defined):AID435003, AID435012, AID489026]; type: functional, cell-based; conditions: Homo sapiens
Escherichia coli = assay: microbe, parasite or virus in culture

Nucleotide-binding oligomerization domain-containing protein 2, sequence (Q9HC29 whole entry, the tested form may be a part): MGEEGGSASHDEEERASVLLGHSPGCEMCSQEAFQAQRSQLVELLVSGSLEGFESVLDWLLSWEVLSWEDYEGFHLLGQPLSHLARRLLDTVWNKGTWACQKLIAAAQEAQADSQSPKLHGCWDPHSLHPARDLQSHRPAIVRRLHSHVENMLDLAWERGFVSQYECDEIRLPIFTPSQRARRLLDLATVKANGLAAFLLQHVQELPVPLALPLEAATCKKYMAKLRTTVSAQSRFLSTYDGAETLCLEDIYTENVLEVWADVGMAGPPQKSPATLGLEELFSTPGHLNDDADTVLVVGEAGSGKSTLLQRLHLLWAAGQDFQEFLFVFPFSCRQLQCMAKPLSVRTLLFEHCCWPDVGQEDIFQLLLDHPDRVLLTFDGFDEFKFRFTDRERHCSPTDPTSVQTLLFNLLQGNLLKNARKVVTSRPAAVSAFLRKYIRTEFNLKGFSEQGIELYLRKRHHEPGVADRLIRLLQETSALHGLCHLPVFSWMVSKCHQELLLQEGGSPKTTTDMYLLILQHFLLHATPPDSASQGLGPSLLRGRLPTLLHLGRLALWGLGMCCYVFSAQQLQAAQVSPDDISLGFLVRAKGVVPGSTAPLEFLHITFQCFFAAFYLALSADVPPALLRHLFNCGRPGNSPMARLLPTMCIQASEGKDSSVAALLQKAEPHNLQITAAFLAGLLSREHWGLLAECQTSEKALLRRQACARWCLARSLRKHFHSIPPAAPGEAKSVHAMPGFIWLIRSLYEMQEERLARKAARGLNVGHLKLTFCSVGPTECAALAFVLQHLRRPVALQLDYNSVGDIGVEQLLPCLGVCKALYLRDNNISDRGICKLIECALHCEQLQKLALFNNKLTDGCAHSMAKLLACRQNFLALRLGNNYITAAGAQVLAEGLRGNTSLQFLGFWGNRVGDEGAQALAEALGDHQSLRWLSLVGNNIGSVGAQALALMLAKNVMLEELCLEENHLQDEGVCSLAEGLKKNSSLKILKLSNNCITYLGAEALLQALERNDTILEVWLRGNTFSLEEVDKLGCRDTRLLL
Glycogen synthase kinase-3 alpha, sequence (P49840 whole entry): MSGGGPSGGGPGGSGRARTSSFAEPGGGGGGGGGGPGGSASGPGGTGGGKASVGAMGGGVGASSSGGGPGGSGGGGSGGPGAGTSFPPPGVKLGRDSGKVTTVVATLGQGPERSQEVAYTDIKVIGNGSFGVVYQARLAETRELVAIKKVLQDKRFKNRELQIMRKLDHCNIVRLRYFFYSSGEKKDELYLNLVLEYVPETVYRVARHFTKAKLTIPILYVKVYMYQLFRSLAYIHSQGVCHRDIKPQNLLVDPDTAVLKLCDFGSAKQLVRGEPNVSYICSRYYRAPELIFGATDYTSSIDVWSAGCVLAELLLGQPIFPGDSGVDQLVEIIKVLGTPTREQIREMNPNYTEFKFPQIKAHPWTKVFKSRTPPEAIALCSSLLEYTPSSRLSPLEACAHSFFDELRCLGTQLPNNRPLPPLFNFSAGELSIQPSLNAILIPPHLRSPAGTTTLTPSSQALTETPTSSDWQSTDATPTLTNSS
Nonstructural protein 1, sequence (Q194T2 whole entry): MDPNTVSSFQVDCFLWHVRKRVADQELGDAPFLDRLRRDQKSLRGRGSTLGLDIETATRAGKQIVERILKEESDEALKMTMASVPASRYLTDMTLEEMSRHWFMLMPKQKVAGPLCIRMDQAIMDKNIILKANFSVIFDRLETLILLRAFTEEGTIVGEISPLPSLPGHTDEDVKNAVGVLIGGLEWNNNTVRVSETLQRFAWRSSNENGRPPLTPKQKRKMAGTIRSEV
Beta-galactosidase, sequence (Q8VNN2 whole entry): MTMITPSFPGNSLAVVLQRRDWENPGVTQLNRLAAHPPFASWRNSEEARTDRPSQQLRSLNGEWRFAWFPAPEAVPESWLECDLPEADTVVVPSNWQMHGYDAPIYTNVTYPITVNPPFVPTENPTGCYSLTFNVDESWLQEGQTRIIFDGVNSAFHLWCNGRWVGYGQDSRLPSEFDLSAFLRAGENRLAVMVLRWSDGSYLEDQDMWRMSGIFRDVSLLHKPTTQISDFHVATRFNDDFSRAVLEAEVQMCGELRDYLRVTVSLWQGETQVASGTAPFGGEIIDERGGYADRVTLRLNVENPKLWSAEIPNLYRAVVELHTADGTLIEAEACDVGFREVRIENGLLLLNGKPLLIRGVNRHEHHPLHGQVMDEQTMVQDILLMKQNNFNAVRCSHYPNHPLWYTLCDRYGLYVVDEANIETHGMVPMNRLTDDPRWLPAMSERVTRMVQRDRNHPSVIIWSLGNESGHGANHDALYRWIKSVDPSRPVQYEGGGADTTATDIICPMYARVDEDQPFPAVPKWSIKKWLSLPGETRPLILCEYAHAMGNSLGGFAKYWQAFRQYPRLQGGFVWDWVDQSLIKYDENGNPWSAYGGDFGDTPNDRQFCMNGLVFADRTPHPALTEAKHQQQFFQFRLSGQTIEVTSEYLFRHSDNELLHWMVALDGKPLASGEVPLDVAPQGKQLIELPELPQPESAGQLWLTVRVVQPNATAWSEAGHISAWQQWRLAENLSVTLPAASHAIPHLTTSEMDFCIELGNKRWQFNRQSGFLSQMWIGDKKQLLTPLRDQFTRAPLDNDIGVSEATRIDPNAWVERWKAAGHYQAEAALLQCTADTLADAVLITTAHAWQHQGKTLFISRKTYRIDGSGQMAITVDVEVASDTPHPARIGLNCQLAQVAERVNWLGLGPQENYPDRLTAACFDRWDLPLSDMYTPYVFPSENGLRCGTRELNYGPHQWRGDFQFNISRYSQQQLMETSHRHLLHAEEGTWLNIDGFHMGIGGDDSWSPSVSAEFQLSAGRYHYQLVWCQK
Glycogen synthase kinase-3 beta, sequence (P49841 whole entry): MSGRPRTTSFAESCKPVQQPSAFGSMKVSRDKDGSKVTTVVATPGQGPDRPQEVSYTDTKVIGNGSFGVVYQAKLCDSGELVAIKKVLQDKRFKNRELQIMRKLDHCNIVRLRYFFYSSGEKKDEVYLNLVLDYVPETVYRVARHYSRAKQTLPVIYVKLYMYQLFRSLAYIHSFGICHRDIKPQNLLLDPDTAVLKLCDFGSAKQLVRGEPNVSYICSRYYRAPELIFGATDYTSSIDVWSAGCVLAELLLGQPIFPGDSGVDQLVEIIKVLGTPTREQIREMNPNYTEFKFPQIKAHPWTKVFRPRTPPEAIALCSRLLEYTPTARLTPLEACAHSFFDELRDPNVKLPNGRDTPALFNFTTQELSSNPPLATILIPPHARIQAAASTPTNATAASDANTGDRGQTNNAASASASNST
Luciferin 4-monooxygenase, sequence (P08659 whole entry): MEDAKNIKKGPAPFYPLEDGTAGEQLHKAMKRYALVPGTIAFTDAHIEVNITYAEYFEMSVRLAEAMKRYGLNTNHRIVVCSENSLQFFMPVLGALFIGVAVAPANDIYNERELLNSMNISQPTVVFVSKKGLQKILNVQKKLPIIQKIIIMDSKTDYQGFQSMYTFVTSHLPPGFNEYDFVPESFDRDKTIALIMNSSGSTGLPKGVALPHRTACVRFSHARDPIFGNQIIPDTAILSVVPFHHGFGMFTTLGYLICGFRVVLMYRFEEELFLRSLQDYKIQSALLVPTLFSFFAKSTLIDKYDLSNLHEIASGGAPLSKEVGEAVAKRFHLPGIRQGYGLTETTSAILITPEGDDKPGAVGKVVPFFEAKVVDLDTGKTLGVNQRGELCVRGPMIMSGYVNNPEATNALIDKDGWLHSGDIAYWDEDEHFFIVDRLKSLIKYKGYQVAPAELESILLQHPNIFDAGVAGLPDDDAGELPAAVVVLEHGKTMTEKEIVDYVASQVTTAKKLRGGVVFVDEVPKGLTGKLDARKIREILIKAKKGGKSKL

Q: For `CN(C)c1cccc2c(C=C(C#N)C#N)ccc(N(C)C)c12`, which IC50 (Nonstructural protein 1) is on record?
A: Its IC50 is 22.6 µM (active).

Q: What about the IC50 (MDCK [1]) of the same compound?
A: The IC50 was 15.9 µM (active).

Q: What about the IC50 (MDCK [2]) of the same compound?
A: Its IC50 is > 100 µM (active).

Q: For `Nc1nc(NCCCN2CCOCC2)nc(Nc2cccc(F)c2)c1[N+](=O)[O-]`, which AC50 [3] is on record?
A: Its AC50 is 0.698 µM (active).

Q: And the AC50 [4]?
A: Its AC50 is 0.208 µM (active).

Q: Which results are given for `O=C(c1ccc(Cl)cc1)C1CCN(c2ccnc3cc(Cl)ccc23)CC1`?
A: AC50 (Candida albicans [5]): 0.579 µM (active); AC50 (Candida albicans [6]): 0.663 µM (active); AC50 (Candida albicans [7]): 0.342 µM (active); AC50 (Candida albicans [8]): 3.81 µM (active)

Q: What does the source list for `COc1ccc(-c2cc3c(nn2)-c2ccccc2C3=O)cc1`?
A: EC50 [9]: > 60 µM (not active); EC50 (Beta-galactosidase): > 40 µM (inactive); EC50 [10]: 0.375 µM (inconclusive); EC50 [11]: 0.384 µM (active); EC50 [12]: 6.87 µM (active); IC50 [13]: 6.98 µM (active); AC50 [14]: 4.22 µM (active); AC50 (A-375): 20.2 µM (active); AC50 [15]: 29.2 µM (active); AC50 [16]: 15.8 µM (active); AC50 [17]: 4.41 µM (active); AC50 [18]: 5.11 µM (active); AC50 [19]: 23.4 µM (active)

Q: Which EC50 (HEK293 [20]) does the source give for `O=S(=O)(NCC1CCCO1)c1ccc(-c2ccc(S(=O)(=O)NCC3CCCO3)cc2)cc1` (stereo unspecified) here?
A: The EC50 was 1.65 µM (active).

Q: What about the IC50 (HEK293 [21]) of the same compound?
A: Its IC50 is 5.37 µM (active).

Q: And the IC50 (HEK293 [22])?
A: The IC50 was 19.9 µM (active).

Q: And the EC50 [23]?
A: The EC50 was > 20 µM (inactive).

Q: What about the IC50 (HEK293 [24]) of the same compound?
A: Its IC50 is 9.07 µM (active).

Q: What about the IC50 (HEK293 [25]) of the same compound?
A: The IC50 was > 20 µM (inactive).

Q: And the IC50 (Jurkat [26])?
A: The IC50 was > 80 µM (inactive).

Q: What about the IC50 [27] of the same compound?
A: Its IC50 is > 80 µM (inactive).

Q: What about the AC50 (INS1) of the same compound?
A: Its AC50 is 3.25 µM (active).

Q: And the IC50 [28]?
A: The IC50 was 2.02 µM (active).

Q: With `COc1ccc(C(=O)Nc2ccc(NC(=O)c3cc4ccccc4o3)cc2)cc1Cl` as the compound, how does the IC50 (HEK293 [29]) read?
A: Its IC50 is > 80 µM (inactive).

Q: And the IC50 (Jurkat [30])?
A: The IC50 was > 79 µM (inactive).

Q: What about the IC50 (HEK293 [31]) of the same compound?
A: The IC50 was > 80 µM (inactive).

Q: With `CC(C)c1cc(C(=O)NCc2ccco2)no1` as the compound, how does the AC50 (Escherichia coli) read?
A: Its AC50 is 46.2 µM (active).
